# Test results published in patent publication US8952192B2, “Phosphorylated and branched dihydroxy-pentane-dione (DPD) analogs as quorum sensing inhibitors in bacteria” (University of Maryland, College Park, priority 2011, dated 2015).
# “Also recorded” adds a separate entry of the source.
# Tests used:
# [1] = test system: lsr expression in E. coli (lsr-lacZ reporter strains); test: QS response (lsr expression): AI-2 dependent β-galactosidase production, Miller assay; type: cell-based, Escherichia coli; conditions: for inhibition of AI-2-mediated lsr expression (β-galactosidase), in words: 20 μM AI-2 (DPD) + 20 μM analog; for IC50: concentration reducing lsr expression (β-galactosidase production) to 50% in the presence of 20 μM exogenously added synthetic DPD, read-out: IC50 of analog (nM) to inhibit QS in E. coli; for effect on native lsr expression (QS response): E. coli ZK126 pLW11 (luxS+), cells produce their own AI-2
# Method: (§1) The panel of C1-alkyl analogs was screened to identify QS modulators in the enteric bacteria E. coli and S. typhimurium. Transcription of the QS associated lsr operon, by using lsr-lacZ reporter strains (Table 2) which produce β-galactosidase in response to added AI-2 was monitored. In order to first establish if the analogs were agonists or antagonists in the QS circuit, the analogs were incubated with E. coli LW7 pLW11 and S. typhimurium MET715 (FIG. 19a-b) both of which are luxS^−. None of the analogs, except ethyl-DPD behaved as agonists for lsr expression. Previous studies investigating AI-2 antagonism in P. aeruginosa or in S. typhimurium were carried out using chemically synthesized AI-2 added to luxS^− cells. […] The same trends were obtained by adding a 1:1 ratio of enzymatically synthesized AI-2 and DPD analogs to the luxS^− strains E. coli LW7 pLW11 and S. typhimurium MET715 (FIG. 11a-b). None of the tested DPD analogs were bacteriocidal or bacteriostatic as the OD600 values of E. coli ZK126 pLW11 and S. typhimurium MET708 in the presence and absence of the analogs were similar (FIG. 10). Though the QS circuitry of the enteric organisms, E. coli and S. typhimurium are homologous they respond differently to the DPD analogs. The E. coli QS circuitry is susceptible to being silenced by a variety of DPD analogs of different shapes and sizes whereas in S. typhimurium, only a handful of DPD analogs could antagonize the action of AI-2. […] Isobutyl-DPD emerged as an effective and non-species-specific quencher; causing significant lsr expression knockdowns in both E. coli and S. typhimurium.
# (§2) The QS response indicated by lsr gene expression was analyzed in pure culture studies by culturing E. coli LW7 pLW11, E. coli ZK126 pLW11 and S. typhimurium MET708, S. typhimurium MET715 overnight in LB medium supplemented with appropriate antibiotics as stated previously. These cells were then diluted into fresh LB medium (with antibiotics) and grown to an OD600 of 0.8-1.0 at 30° C., 250 rpm. Cells were then collected by centrifugation at 10,000×g for 10 minutes, and resuspended in 10 mM phosphate buffer. AI-2 (20 μM) and the respective analog (20 μM) were added to the E. coli or S. typhimurium suspension for 2 hours at 37° C. AI-2 dependent β-galactosidase production was quantified by the Miller assay.
# (§3) The QS response indicated by lsr gene expression was analyzed in pure culture studies by culturing E. coli LW7 pLW11 and S. typhimurium MET715 overnight at 30° C. in LB medium supplemented with appropriate antibiotics as stated previously. These cells were then diluted into fresh LB medium (with antibiotics) and grown to an OD600 of 0.4-0.8 at 37° C., 250 rpm. Cells were then collected by centrifugation at 10,000×g for 10 min and resuspended in 10 mM phosphate buffer. AI-2 (20 μM) and the respective analog (20 μM) were added to the E. coli or S. typhimurium suspension for 2 h at 37° C. AI-2 dependent β-galactosidase production was quantified by the Miller assay.
# (§4) The QS response indicated by lsr gene expression was analyzed in pure culture studies by culturing E. coli LW7 pLW11, E. coli ZK126 pLW11 and S. typhimurium MET708, S. typhimurium MET715 overnight in LB medium individually supplemented with appropriate antibiotics, as specified above. These cells were diluted into fresh LB medium (with antibiotics) and grown to an OD600 of 0.8-1.0 at 30° C., 250 rpm. Cells were collected by centrifugation at 10,000×g for 10 minutes, and resuspended in 10 mM phosphate buffer. AI-2 (20 μM) and the respective analog (20 μM) were added to the E. coli or S. typhimurium suspension for 2 hours at 37° C. AI-2 dependent β-galactosidase production was quantified by the Miller assay.
# [2] = test system: lsr expression in S. typhimurium (lsr-lacZ reporter strains); test: as above; type: cell-based, Salmonella typhimurium; conditions: for IC50: concentration reducing lsr expression (β-galactosidase production) to 50% in the presence of 20 μM exogenously added synthetic DPD, read-out: IC50 of analog (nM) to inhibit QS in S. typhimurium
# Method: as §1, §2, §3, §4
# [3] = test system: V. harveyi; test: DPD analogs and representative bacterial species affected (Table 1); type: cell-based; design: key: x: DPD Analogs and representative bacterial species affected
# [4] = test system: E. coli; test: as above; type: cell-based; design: key: x: DPD Analogs and representative bacterial species affected
# [5] = test system: lsr expression in E. coli (lsr-lacZ reporter strains); test: QS response (lsr expression): AI-2 dependent β-galactosidase production, Miller assay; type: cell-based, Escherichia coli; conditions: E. coli SH3 (lsrK−, luxS−), 20 μM ethyl-DPD
# [6] = test system: S. mutans; test: DPD analogs and representative bacterial species affected (Table 1); type: cell-based; design: key: x: DPD Analogs and representative bacterial species affected
# [7] = test system: pyocyanin production in P. aeruginosa PAO1; test: QS response (pyocyanin production); type: cell-based; conditions: pure culture P. aeruginosa PAO1, DPD analogs (100 μM)
# Method: Identifying Modulators of P. aeruginosa QS. DPD analogs (100 μM) were screened for activity in P. aeruginosa PAO1 by monitoring pyocyanin production (FIG. 34b and FIG. 38).
# The cells were grown with the analog at 3 mL total volume in 50 mL flasks in LB medium, with continuous shaking. Between 22-24 h, when the cells turned green after pyocyanin secretion, the pigment was extracted. The pyocyanin quantification assay was conducted as described. 2 mL chloroform was added to the 3 mL culture and pipetted up and down. 1 mL of the chloroform was transferred to a separate tube and the pyocyanin was re-extracted into 200 μL of 0.2 M HCl. The absorbance of the solution was measured at OD 520 nm. To calculate the concentration of pyocyanin extracted as μg/mL, the OD at 520 nm was multiplied by 17.07.
# [8] = biological target: T1, LsrK (Escherichia coli, UniProt P77432); test: In vitro phosphorylation of analogs by LsrK (TLC, autoradiography); type: biochemical, E. coli; conditions: for phosphorylation by E. coli LsrK: incubation with LsrK in vitro for one hour (Example 6)
# T1 construct: made in house; host or cells: E. coli BL21
# Method: LsrK was purified and from E. coli BL21 pET200-LsrK as described before. Phosphorylated analogs were synthesized by incubating 1 μM) LsrK with 40 μM ATP (Roche), […] of [γ-^32P] […] A 5 μL aliquot was then spotted onto a cellulose TLC plate (Selecto Scientific). The plate was developed using 0.8 M LiCl as the solvent, air dried and developed via autoradiography.
# LsrK was purified from E. coli BL21 pET200-LsrK as described before. Phosphorylated analogs were synthesized by incubating (1 μM) LsrK with (40 μM) ATP (Roche), ([…]) of [P^32] […] An aliquot (2.5 μL) was then spotted onto a cellulose TLC plate (Selecto Scientific). The plate was developed using 0.8 M LiCl as the solvent, air dried and developed via autoradiography.
# [9] = test system: S. typhimurium MET708; test: Trispecies synthetic ecosystem (S. typhimurium, V. harveyi, E. coli): β-galactosidase activity; type: cell-based; conditions: trispecies co-culture, lacZ activity after 4 hours
# From the text: (§5) To investigate the effect of the DPD analogs in a mixed bacterial environment, a synthetic ecosystem composed of three different bacterial populations was assembled. Specifically, S. typhimurium MET708, V. harveyi BB170 and E. coli W3110 (pCT6), each luxS^+ (Table 2), and each producing their native AI-2 were co-cultured in the same tubes. By design, each species was selected so that a different reporter probe would indicate the specific bacterium's QS response: S. typhimurium (MET708) expresses β-galactosidase; V. harveyi (BB170) elicits bioluminescience; and E. coli (W331) are engineered to synthesize GFP. In this way, their responses can be differentiated and quantified in response to AI-2.
# (§6) The S. typhimurium MET708, V. harveyi BB170 and E. coli W3110 pCT6 were each cultured separately overnight in LM medium supplemented with the appropriate antibiotic. […] The V. harveyi luminescence response was measured after 2.5 hours. The S. typhimurium lacZ (β-galactosidase) activity was measured after 4 hours. The E. coli response was determined after 8 hours, by fixing the cells with 1:1 cold 4% paraformaldehyde and using flow cytometric analysis. Samples were analyzed by flow cytometery (FACS Canto II, BD 394 Biosciences), with 20,000 gated events analyzed per sample.
# [10] = test system: V. harveyi BB170; test: QS response (bioluminescence), trispecies synthetic ecosystem; type: cell-based; conditions: LM media
# Method: The effect of isobutyl-DPD or isopropyl-DPD on QS associated bioluminescence production by V. harveyi was recorded by measuring the light production from reporter strain, V. harveyi BB170. The analogs were added at concentrations of (20 μM or 40 μM) to V. harveyi BB170 which was assayed as previously described.
# The S. typhimurium MET708, V. harveyi BB170 and E. coli W3110 pCT6 were each cultured separately overnight in LM medium supplemented with the appropriate antibiotic. V. harveyi BB170, S. typhimurium MET708 and E. coli MDAI-2 were diluted (1:4:8), respectively, into a single 1 ml volume of fresh LM medium without antibiotics. The co-culture was supplemented with either 20 μM or 40 μM analog initially and again after 3 and 5 hours of growth. The V. harveyi luminescence response was measured after 2.5 hours. The S. typhimurium lacZ (β-galactosidase) activity was measured after 4 hours. The E. coli response was determined after 8 hours, by fixing the cells with 1:1 cold 4% paraformaldehyde and using flow cytometric analysis. Samples were analyzed by flow cytometery (FACS Canto II, BD 394 Biosciences), with 20,000 gated events analyzed per sample.
# [11] = test system: E. coli W3110 pCT6; test: Trispecies synthetic ecosystem: AI-2 stimulated GFP expression, flow cytometry; type: cell-based; conditions: trispecies co-culture, flow cytometry after 8 hours; 60.7% without analog
# From the text: as §5, §6
# T1 sequence (P77432 whole entry): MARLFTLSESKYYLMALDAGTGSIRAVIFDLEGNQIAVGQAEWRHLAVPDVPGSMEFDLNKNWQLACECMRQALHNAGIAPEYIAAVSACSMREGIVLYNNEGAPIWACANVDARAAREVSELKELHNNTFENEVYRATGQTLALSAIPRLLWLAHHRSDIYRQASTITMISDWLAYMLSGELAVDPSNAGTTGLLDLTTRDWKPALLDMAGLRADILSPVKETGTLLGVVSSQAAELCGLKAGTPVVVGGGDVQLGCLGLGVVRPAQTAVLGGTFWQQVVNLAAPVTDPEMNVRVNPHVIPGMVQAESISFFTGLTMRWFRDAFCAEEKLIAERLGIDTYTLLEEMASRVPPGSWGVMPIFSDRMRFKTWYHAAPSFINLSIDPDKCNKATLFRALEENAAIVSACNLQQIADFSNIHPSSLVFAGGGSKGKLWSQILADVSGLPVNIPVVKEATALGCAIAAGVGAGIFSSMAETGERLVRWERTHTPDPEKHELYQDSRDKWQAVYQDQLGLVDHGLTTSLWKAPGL
structure (smiles),measurement,setting,value
CCC(=O)C(=O)[C@@H](O)CO [ethyl-DPD],agonist activity for lsr expression,"[1]; E. coli LW7 pLW11 (luxS−), analog only, no AI-2 added",agonist
same,agonist activity for lsr expression,"[2]; S. typhimurium MET715 (luxS−), analog only, no AI-2 added",agonist
same,bacterial species affected: V. harveyi,[3],x
same,bacterial species affected: E. coli,[4],x
same,lsr transcription in LsrK knockout strain,[5],did not initiate lsr transcription
"O=C(C(=O)C(O)CO)c1ccco1 (stereo not shown) [furanosyl-DPD, Furanyl DPD]","inhibition of AI-2-mediated lsr expression (β-galactosidase), in words",[1]; E. coli LW7 pLW11 (luxS−),minimal
same,bacterial species affected: S. mutans,[6],x
"CCCCC(=O)C(=O)[C@@H](O)CO [Butyl-DPD, butyl-DPD]",IC50,[1],2970 nM
same,effect on native lsr expression (QS response),"[2]; S. typhimurium MET708 (luxS+), cells produce their own AI-2",considerable QS response reduction; also recorded: significantly inhibited signaling
same,IC50,[2],> 40000 nM
same,bacterial species affected: V. harveyi,[3],x
same,bacterial species affected: E. coli,[4],x
"CCCCCCCC(=O)C(=O)[C@@H](O)CO [Heptyl-DPD, heptyl-DPD]",IC50,[1],15900 nM
same,IC50,[2],> 40000 nM
same,inhibition of pyocyanin production,[7],some inhibition
same,bacterial species affected: E. coli,[4],x
"O=C(C(=O)C1CCCCC1)C(O)CO (stereo not shown) [Cyclohexyl-DPD, cyclohexyl-DPD]","inhibition of AI-2-mediated lsr expression (β-galactosidase), in words",[1]; E. coli LW7 pLW11 (luxS−),attenuated lsr expression in E. coli to a lesser extent
same,"effect on AI-2-mediated lsr expression (β-galactosidase), in words","[2]; S. typhimurium MET715 (luxS−), 20 μM AI-2 (DPD) + 20 μM analog",increased expression
same,phosphorylation by E. coli LsrK,[8],weakly phosphorylated
same,phosphorylation by E. coli LsrK,[8]; listed as cyclohexyl,not phosphorylated
same,bacterial species affected: V. harveyi,[3],x
same,bacterial species affected: E. coli,[4],x
"O=C(C(=O)C1CCC1)C(O)CO (stereo not shown) [Cyclobutyl-DPD, Cyclobutyl DPD]","inhibition of AI-2-mediated lsr expression (β-galactosidase), in words",[1]; E. coli LW7 pLW11 (luxS−),inhibit lsr expression
same,phosphorylation by E. coli LsrK,[8],significantly phosphorylated
same,bacterial species affected: S. mutans,[6],x
CCCC(=O)C(=O)[C@@H](O)CO [propyl-DPD],effect on native lsr expression (QS response),[1],significant knockdown
same,bacterial species affected: V. harveyi,[3],x
same,bacterial species affected: E. coli,[4],x
CC(C)C(=O)C(=O)C(O)CO (stereo not shown) [isopropyl-DPD],effect on native lsr expression (QS response),[1],substantial reduction; also recorded: partial antagonist
same,phosphorylation by LsrK,[8]; incubation with LsrK and excess ATP for 2 hours (Example 1),phosphorylated
same,"reduction of the S. typhimurium response, in words",[9],unable to cause any reduction
same,decrease of bioluminescence in V. harveyi,[10]; 20 μM,50%
same,decrease of bioluminescence in V. harveyi,[10]; 40 μM,50%
same,"QS positive (green, GFP) cells of the E. coli population after analog addition",[11],21.4%
same,bacterial species affected: E. coli,[4],x
CCCCCCC(=O)C(=O)[C@@H](O)CO [Hexyl DPD],bacterial species affected: V. harveyi,[3],x
same,bacterial species affected: E. coli,[4],x
